Data published in patent US10131652B2, “Pyrimidinyloxy benzene derivatives as herbicides” (E. I. DU PONT DE NEMOURS AND COMPANY, priority 2014, dated 2018).

Tests used:
Assay type in all cases: in vivo
[1] = system: giant foxtail (Setaria faberii); assay: Test B pre-/postemergence plant response
How it was run: (§1)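 Visual injury rating, 0 (no effect) to 100 (complete control), vs untreated controls after ~10 d greenhouse. Pre: directed soil spray after planting in loam/sand. Post: plants 2–10 cm, 1–2 leaf stage. Compound in non-phytotoxic solvent plus surfactant.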

[2] = system: barnyardgrass (Echinochloa crus-galli); assay: Test B pre-/postemergence plant response
How it was run: as §1

corn (Zea mays) [3] = assay: Test B pre-/postemergence plant response; settings: 0 to 100 scale, 0 no effect, 100 complete control
How it was run: as §1

[4] = system: pigweed (Amaranthus retroflexus); assay: Test B pre-/postemergence plant response
How it was run: as §1

[5] = system: wheat (Triticum aestivum); assay: Test B pre-/postemergence plant response; settings: 0 to 100 scale, 0 no effect, 100 complete control
How it was run: as §1

[6] = system: galium (catchweed bedstraw, Galium aparine); assay: Test D pre-/postemergence plant response
How it was run: (§2)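 Greenhouse herbicidal response, both pre- and postemergence applications, with solvent/surfactant formulation. Postemergence plants were at 1- to 4-leaf stage. Visual scores 0–100 relative to controls, taken 13 to 15 days later.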

corn (Zea mays) [7] = assay: Test D pre-/postemergence plant response
How it was run: as §2

[8] = system: ragweed (common ragweed, Ambrosia elatior); assay: Test D pre-/postemergence plant response
How it was run: as §2

[9] = system: waterhemp (common waterhemp, Amaranthus rudis); assay: Test D pre-/postemergence plant response
How it was run: as §2

[10] = system: large (Lg) crabgrass (Digitaria sanguinalis); assay: Test D pre-/postemergence plant response
How it was run: as §2

[11] = system: winter wheat (Triticum aestivum); assay: Test D pre-/postemergence plant response
How it was run: as §2

[12] = system: morningglory (Ipomoea coccinea); assay: Test D pre-/postemergence plant response
How it was run: as §2

[13] = system: Italian ryegrass (Lolium multiflorum); assay: Test D pre-/postemergence plant response
How it was run: as §2

[14] = system: yellow nutsedge (Cyperus esculentus); assay: Test D pre-/postemergence plant response
How it was run: as §2

soybean (Glycine max) = assay: Test D pre-/postemergence plant response
How it was run: as §2

[15] = system: lambsquarters (Chenopodium album); assay: Test D pre-/postemergence plant response
How it was run: as §2

[16] = 31 g ai/ha, Postemergence, 0 to 100 scale, 0 no effect, 100 complete control
[17] = 31 g ai/ha, Preemergence, 0 to 100 scale where 0 is no effect and 100 is complete control
[18] = 125 g ai/ha, postemergence, 0 to 100 scale, 0 no effect, 100 complete control
[19] = Preemergence, 125 g ai/ha, 0 to 100 scale where 0 is no effect and 100 is complete control
[20] = Postemergence, 16 g ai/ha, scale 0 to 100 (0 no effect, 100 complete control)
[21] = Postemergence, 31 g ai/ha, scale 0 to 100 (0 no effect, 100 complete control)
[22] = Postemergence, 62 g ai/ha, scale 0 to 100, 0 no effect, 100 complete control
[23] = Postemergence, 125 g ai/ha, scale 0 to 100, 0 no effect, 100 complete control
[24] = Preemergence, 16 g ai/ha, scale 0 to 100 (0 no effect, 100 complete control)
[25] = Preemergence, 31 g ai/ha, scale 0 to 100 (0 no effect, 100 complete control)
[26] = Preemergence, 62 g ai/ha, scale 0 to 100 (0 no effect, 100 complete control)

FC(F)c1cc(-c2c(Cl)cccc2Oc2ncc(Cl)cn2)on1 [Compound 120]
Plant response rating, Foxtail, Giant [1, 16]: 40 | Plant response rating, Foxtail, Giant [1, 17]: 100 | Plant response rating, Foxtail, Giant [1, 18]: 90 | Plant response rating, Foxtail, Giant [1, 19]: 100 | Plant response rating, Barnyardgrass [2, 16]: 50 | Plant response rating, Barnyardgrass [2, 17]: 90 | Plant response rating, Barnyardgrass [2, 18]: 90 | Plant response rating, Barnyardgrass [2, 19]: 100 | Plant response rating, Corn (corn (Zea mays) [3]; 31 g ai/ha, Postemergence): 30 | Plant response rating, Corn (corn (Zea mays) [3]; 125 g ai/ha, postemergence): 40 | Plant response rating, Pigweed [4, 16]: 100 | Plant response rating, Pigweed [4, 17]: 100 | Plant response rating, Pigweed [4, 18]: 100 | Plant response rating, Wheat ([5]; 31 g ai/ha, Postemergence): 0 | Plant response rating, Wheat ([5]; 125 g ai/ha, postemergence): 40 | Galium plant response rating [6, 20]: 98 | Galium plant response rating [6, 21]: 98 | Plant response rating, Galium [6, 22]: 100 | Plant response rating, Galium [6, 23]: 100 | Plant response rating (scale 0 to 100), Galium ([6]; Preemergence, 125 g ai/ha): 90 | Plant response rating, Galium [6, 24]: 90 | Plant response rating, Galium [6, 25]: 98 | Plant response rating, Galium [6, 26]: 90 | Corn plant response rating (corn (Zea mays) [7]; [20]): 15 | Corn plant response rating (corn (Zea mays) [7]; [21]): 15 | Plant response rating, Corn (corn (Zea mays) [7]; [22]): 10 | Plant response rating, Corn (corn (Zea mays) [7]; [23]): 15 | Plant response rating (scale 0 to 100), Corn (corn (Zea mays) [7]; Preemergence, 125 g ai/ha): 75 | Plant response rating, Corn (corn (Zea mays) [7]; [24]): 0 | Plant response rating, Corn (corn (Zea mays) [7]; [25]): 35 | Plant response rating, Corn (corn (Zea mays) [7]; [26]): 25 | Ragweed plant response rating [8, 20]: 40 | Ragweed plant response rating [8, 21]: 55 | Plant response rating, Ragweed [8, 22]: 70 | Plant response rating, Ragweed [8, 23]: 85 | Plant response rating (scale 0 to 100), Ragweed ([8]; Preemergence, 125 g ai/ha): 100 | Plant response rating, Ragweed [8, 24]: 0 | Plant response rating, Ragweed [8, 25]: 0 | Plant response rating, Ragweed [8, 26]: 25 | Waterhemp plant response rating [9, 20]: 90 | Waterhemp plant response rating [9, 21]: 100 | Plant response rating, Waterhemp [9, 22]: 100 | Plant response rating, Waterhemp [9, 23]: 100 | Plant response rating (scale 0 to 100), Waterhemp ([9]; Preemergence, 125 g ai/ha): 100 | Plant response rating, Waterhemp [9, 24]: 100 | Plant response rating, Waterhemp [9, 25]: 100 | Plant response rating, Waterhemp [9, 26]: 100 | Crabgrass, Large plant response rating [10, 20]: 30 | Crabgrass, Large plant response rating [10, 21]: 25 | Plant response rating, Crabgrass, Large [10, 22]: 35 | Plant response rating, Crabgrass, Large [10, 23]: 65 | Plant response rating (scale 0 to 100), Crabgrass, Large ([10]; Preemergence, 125 g ai/ha): 100 | Plant response rating, Crabgrass, Large [10, 24]: 98 | Plant response rating, Crabgrass, Large [10, 25]: 100 | Plant response rating, Crabgrass, Large [10, 26]: 100 | Wheat plant response rating [11, 20]: 0 | Wheat plant response rating [11, 21]: 0 | Plant response rating, Wheat [11, 22]: 0 | Plant response rating, Wheat [11, 23]: 0 | Plant response rating (scale 0 to 100), Wheat ([11]; Preemergence, 125 g ai/ha): 5 | Plant response rating, Wheat [11, 24]: 0 | Plant response rating, Wheat [11, 25]: 0 | Plant response rating, Wheat [11, 26]: 5 | Morningglory plant response rating [12, 20]: 85 | Morningglory plant response rating [12, 21]: 98 | Plant response rating, Morningglory [12, 22]: 80 | Plant response rating, Morningglory [12, 23]: 100 | Plant response rating (scale 0 to 100), Morningglory ([12]; Preemergence, 125 g ai/ha): 75 | Plant response rating, Morningglory [12, 24]: 0 | Plant response rating, Morningglory [12, 25]: 30 | Plant response rating, Morningglory [12, 26]: 60 | Ryegrass, Italian plant response rating [13, 20]: 5 | Ryegrass, Italian plant response rating [13, 21]: 5 | Plant response rating, Ryegrass, Italian [13, 22]: 10 | Plant response rating, Ryegrass, Italian [13, 23]: 50 | Plant response rating (scale 0 to 100), Ryegrass, Italian ([13]; Preemergence, 125 g ai/ha): 90 | Plant response rating, Ryegrass, Italian [13, 24]: 5 | Plant response rating, Ryegrass, Italian [13, 25]: 35 | Plant response rating, Ryegrass, Italian [13, 26]: 90 | Nutsedge, Yellow plant response rating [14, 20]: 5 | Nutsedge, Yellow plant response rating [14, 21]: 10 | Plant response rating, Nutsedge, Yellow [14, 22]: 10 | Plant response rating, Nutsedge, Yellow [14, 23]: 15 | Plant response rating (scale 0 to 100), Nutsedge, Yellow ([14]; Preemergence, 125 g ai/ha): 45 | Plant response rating, Nutsedge, Yellow [14, 24]: 0 | Plant response rating, Nutsedge, Yellow [14, 25]: 5 | Plant response rating, Nutsedge, Yellow [14, 26]: 35 | Soybean plant response rating (soybean (Glycine max); [20]): 90 | Soybean plant response rating (soybean (Glycine max); [21]): 70 | Plant response rating, Soybean (soybean (Glycine max); [22]): 70 | Plant response rating, Soybean (soybean (Glycine max); [23]): 95 | Plant response rating (scale 0 to 100), Soybean (soybean (Glycine max); Preemergence, 125 g ai/ha): 50 | Plant response rating, Soybean (soybean (Glycine max); [24]): 75 | Plant response rating, Soybean (soybean (Glycine max); [25]): 10 | Plant response rating, Soybean (soybean (Glycine max); [26]): 60 | Lambsquarters plant response rating [15, 20]: 100 | Lambsquarters plant response rating [15, 21]: 100 | Plant response rating, Lambsquarters [15, 22]: 100 | Plant response rating, Lambsquarters [15, 23]: 100 | Plant response rating (scale 0 to 100), Lambsquarters ([15]; Preemergence, 125 g ai/ha): 100 | Plant response rating, Lambsquarters [15, 24]: 70 | Plant response rating, Lambsquarters [15, 25]: 95 | Plant response rating, Lambsquarters [15, 26]: 90

FC(F)c1cc(-c2c(Cl)cccc2Oc2ncc(Br)cn2)on1 [Compound 121]
Plant response rating, Foxtail, Giant [1, 16]: 70 | Plant response rating, Foxtail, Giant [1, 17]: 100 | Plant response rating, Foxtail, Giant [1, 18]: 90 | Plant response rating, Foxtail, Giant [1, 19]: 100 | Plant response rating, Barnyardgrass [2, 16]: 50 | Plant response rating, Barnyardgrass [2, 17]: 70 | Plant response rating, Barnyardgrass [2, 18]: 90 | Plant response rating, Barnyardgrass [2, 19]: 90 | Plant response rating, Corn (corn (Zea mays) [3]; 31 g ai/ha, Postemergence): 20 | Plant response rating, Corn (corn (Zea mays) [3]; 125 g ai/ha, postemergence): 40 | Plant response rating, Pigweed [4, 16]: 100 | Plant response rating, Pigweed [4, 17]: 100 | Plant response rating, Pigweed [4, 18]: 100 | Plant response rating, Wheat ([5]; 31 g ai/ha, Postemergence): 0 | Plant response rating, Wheat ([5]; 125 g ai/ha, postemergence): 30 | Galium plant response rating [6, 21]: 90 | Plant response rating, Galium [6, 22]: 100 | Plant response rating, Galium [6, 23]: 95 | Corn plant response rating (corn (Zea mays) [7]; [20]): 10 | Corn plant response rating (corn (Zea mays) [7]; [21]): 20 | Plant response rating, Corn (corn (Zea mays) [7]; [22]): 20 | Plant response rating, Corn (corn (Zea mays) [7]; [23]): 25 | Ragweed plant response rating [8, 21]: 65 | Plant response rating, Ragweed [8, 22]: 75 | Plant response rating, Ragweed [8, 23]: 98 | Waterhemp plant response rating [9, 21]: 95 | Plant response rating, Waterhemp [9, 22]: 100 | Plant response rating, Waterhemp [9, 23]: 100 | Crabgrass, Large plant response rating [10, 20]: 15 | Crabgrass, Large plant response rating [10, 21]: 10 | Plant response rating, Crabgrass, Large [10, 22]: 40 | Plant response rating, Crabgrass, Large [10, 23]: 55 | Wheat plant response rating [11, 21]: 0 | Plant response rating, Wheat [11, 22]: 0 | Plant response rating, Wheat [11, 23]: 0 | Morningglory plant response rating [12, 21]: 75 | Plant response rating, Morningglory [12, 22]: 90 | Plant response rating, Morningglory [12, 23]: 98 | Ryegrass, Italian plant response rating [13, 21]: 10 | Plant response rating, Ryegrass, Italian [13, 22]: 40 | Plant response rating, Ryegrass, Italian [13, 23]: 55 | Nutsedge, Yellow plant response rating [14, 21]: 10 | Plant response rating, Nutsedge, Yellow [14, 22]: 5 | Plant response rating, Nutsedge, Yellow [14, 23]: 20 | Soybean plant response rating (soybean (Glycine max); [21]): 60 | Plant response rating, Soybean (soybean (Glycine max); [22]): 90 | Plant response rating, Soybean (soybean (Glycine max); [23]): 95 | Lambsquarters plant response rating [15, 21]: 100 | Plant response rating, Lambsquarters [15, 22]: 100 | Plant response rating, Lambsquarters [15, 23]: 100
